Reference: patent US12344649B2, “Modulators of parathyroid hormone receptor (PTHR1)” (Flagship Pioneering Innovations VI, LLC, priority 2019, dated 2025)
Where no end group is shown, it is not given here.

Legend:
Assay type in all cases: cell-based
PTHR1 [1] = target: T1, PTHR1 (Homo sapiens, UniProt Q03431); assay: cAMP accumulation assay (HTRF) in CHO-K1/Ga15/PTHR1 cells; set-up: host or cells: CHO-K1 (recombinant line CHO-K1/Ga15/PTHR1); settings: for Emax: CHO-K1, cAMP assay, fitted dose-response maximum
T1 sequence (Q03431 27-593): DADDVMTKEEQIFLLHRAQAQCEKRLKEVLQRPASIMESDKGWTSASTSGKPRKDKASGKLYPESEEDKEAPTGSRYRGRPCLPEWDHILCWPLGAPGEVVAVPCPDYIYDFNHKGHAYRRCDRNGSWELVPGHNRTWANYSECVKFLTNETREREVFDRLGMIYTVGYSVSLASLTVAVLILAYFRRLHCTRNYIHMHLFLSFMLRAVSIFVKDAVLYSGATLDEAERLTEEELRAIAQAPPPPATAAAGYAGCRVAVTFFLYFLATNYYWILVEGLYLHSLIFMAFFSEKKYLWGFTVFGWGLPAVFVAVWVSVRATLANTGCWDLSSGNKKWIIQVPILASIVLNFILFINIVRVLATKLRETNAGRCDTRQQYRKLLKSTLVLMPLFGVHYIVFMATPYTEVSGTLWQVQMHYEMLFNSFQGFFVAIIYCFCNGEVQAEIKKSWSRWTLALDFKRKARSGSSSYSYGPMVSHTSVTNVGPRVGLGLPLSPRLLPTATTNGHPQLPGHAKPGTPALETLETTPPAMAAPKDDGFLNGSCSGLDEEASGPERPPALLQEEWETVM
Description: Cell suspension (5 μL) was seeded in 384-well plates at a density of 3,000 cells/well. Cells were treated with test samples (5 μL) or agonist (PTH 1-34) for 30 minutes at room temperature. cAMP-d2 working solution (5 μL) and anti-cAMP-Cryptate working solution (5 μL) were added to cells and incubated for 60 minutes at room temperature. The signal of the assay plate was read with PheraStar (BMG LABTECH, NC), an HTRF compatible reader.

PTHR1 [2] = target: T1, PTHR1; assay: β-arrestin1 recruitment BRET assay in transfected HEK293T cells; set-up: Flag (N); Life Technologies Corporation, CA (arrestin cDNA); host or cells: HEK293T (CRL-3216, ATCC); settings: β-arrestin1 recruitment, replicate plates
Description: (§1) 18-24 hours post transfection, the Luciferase substrate Coelenterazine (NanoLight Technologies, AZ) was added to cells, a baseline BRET measurement was taken after 5 minutes incubation, and then serial dilutions of peptides, diluted in PBS (with 0.5 mM MgCl2+0.1% BSA FAF), were added to cells, and BRET signal was measured every 2 minutes for 30 minutes on Hybrid Multi-Mode Reader (Synergy Neo2, BioTek, VT). Seventy-five peptides were tested in the β-arrestin recruitment assay.

PTHR1 [3] = target: T1, PTHR1; assay: β-arrestin2 recruitment BRET assay in transfected HEK293T cells; set-up: Flag (N); Life Technologies Corporation, CA (arrestin cDNA); host or cells: HEK293T (CRL-3216, ATCC); settings: β-arrestin2 recruitment, replicate plates
Description: as §1

[4] = cAMP accumulation, fitted curve slope, replicate plates
[5] = cAMP accumulation, replicate plates, read-out: −log10EC50 (converted)
[6] = cAMP assay, fitted dose-response curve, read-out: −log10EC50 (converted)
[7] = cAMP assay, fitted dose-response slope
[8] = read-out: −log10EC50 (converted)

Row | Sequence | −log10Slope (PTHR1 [1]; [4]) | EC50 (PTHR1 [1]; [5]) [µM] | also measured
1 | GVAEIQLMHDIPVIRAEYELREMLLRLLEEIF [Peptide R2-3] | −8.5715 | 11.8 | –
2 | GVAEIQLMVDLDIIRAEYELREMLLRLLEEIF [Peptide R2-12] | −2.726 | 137 | –
3 | GVAELQLMHDLAKIKLELELKVKLLEILKDVY [Peptide R2-49] | – | – | Emax (PTHR1 [1]): 99.9%; EC50 (PTHR1 [1]; [6]): 1.62 µM; −log10Slope (PTHR1 [1]; [7]): −5.638
4 | GVAELQLMHFRALLRAEYELREMLLRLLEEIF [Peptide R2-7] | −0.9597 | 26100 | –
5 | GVALLQIVHDFAKIRAEYELREMLLRLLEEIF [Peptide R2-5] | −4.972 | – | –
6 | GVAMLQILHDKAKVRAEYELREMLLRLLEEIF [Peptide R2-11] | −11.3552 | – | EC50 (PTHR1 [1]): 2.01 µM
7 | GVSMLQIMHDLAVIRAEYELREMLLRLLEEIF [Peptide R2-4] | −13.5432 | 1.36 | –
8 | GVVMLQFMHDVAKIRAEYELREMLLRLLEEIF [Peptide R2-9] | −0.02713 | – | –
9 | GVYAIQAMHDLAKIRAEYELREMLLRLLEEIF [Peptide R2-10] | −8.781 | 32.5 | –
10 | LILVEQLMDLRAYLRAEYELREMLLRLLEEIF [Peptide R2-16] | −8.301 | 19.6 | –
11 | LILVKKIIDLRAYLRAEYELREMLLRLLEEIF [Peptide R2-21] | −8.121 | 21.2 | –
12 | LMHNLGKHLNSMERVEWLRKKLQDVHNFVA [PTH 7-36 antago, reference compound] | – | – | −log10Slope (PTHR1 [2]; fitted curve slope): −1.192; EC50 (PTHR1 [2]; [8]): 0.105 µM; −log10Slope (PTHR1 [3]; fitted curve slope): −2.649; EC50 (PTHR1 [3]; [8]): 0.0469 µM
13 | PIPVKDIMDLRAYLRAEYELREMLLRLLEEIF [Peptide R2-19] | −5.2427 | 20.5 | –
14 | SIIGEQLMLLRALLRAEYELREMLLRLLEEIF [Peptide R2-18] | −1.186 | 5940 | –
15 | VDFEIQLMQQRAQWIADYRIREFLDKLIAEIF [Peptide R1-94] | – | – | Emax (PTHR1 [1]): 90.8%; cAMP accumulation activity compared to control peptide (PTHR1 [1]; FIG. 3, PTH 1-34 positive control): increased activity as compared to the control peptide; EC50 (PTHR1 [1]; [6]): 7.36e-05 µM; −log10Slope (PTHR1 [1]; [7]): −3.981; cAMP (PTHR1 [1]; relative to PTH [1-34], CHO-K1/Ga15/PTHR1 cells): ++
